One series concerns ENBT1. The conditions noted are these: previous findings ref 14; cited from earlier work.
A further series deals with HEK293-hSLC43A3 cells. In words: MTT cell viability assay, HEK293-hSLC43A3. The class given is cell-based, human. The conditions noted are these: for EC50: Homo sapiens, first-phase EC50 where biphasic. As to the method:
(§1) Transfected-HEK293, MOLT-4, and L1210 cells were seeded into 24-well plates at a density of 1.1x10^5 cells per well in complete culture medium. […] Medium containing no cells was used to determine spontaneous MTT reduction (background). In transfected-HEK293 cells, media was removed via a vacuum-powered aspirator and replaced with 150 μL of Dulbecco’s phosphate buffered saline (DPBS—137 mM NaCl, 2.7 mM KCl, 6.3 mM Na2HPO4, 1.5 mM KH2PO4, 0.5 mM MgCl2, 0.9 mM CaCl2, pH 7.4) containing MTT (1 mg/mL) for 90 minutes at 37°C. In MOLT-4 and L1210, cell suspension was transferred to 1.5 mL microcentrifuge tubes and centrifuged for 10 minutes at 3000 rcf. Following centrifugation, media was removed via gentle pipetting and replaced with 150 μL of DPBS containing MTT (1 mg/mL) for 90 minutes at 37°C. Microcentrifuge tubes were centrifuged again for 15 minutes at 23,500 rcf, and then DPBS containing MTT was removed via a vacuum-powered aspirator. The resultant formazan crystals were solubilized in 500 μL of DMSO and transferred to a 96-well plate in 200 μL duplicates. Absorbance was measured at 570 nm, in a SpectraMax® i3x Multi-Mode Detection Platform (Molecular Devices, San Jose, CA). After background subtraction, % cell viability was calculated as the ratio of absorbance in the presence of test compound to that measured with vehicle alone (X 100).
(Tetrazolium assays rely on reduction of a dye to a coloured formazan, in cell work by metabolically active cells.)

In the next series the test system is HEK293-mslc43a3 cells. In words: MTT cell viability assay, HEK293-mslc43a3. The format is cell-based, human. The conditions noted are these: for EC50: Homo sapiens, first-phase EC50 where biphasic. On the procedure: as §1
For the next series, the system named is HEK293-EV cells. In words: MTT cell viability assay, HEK293-EV. The format is cell-based, human. The conditions noted are these: 48 h; for EC50: Homo sapiens, first-phase EC50 where biphasic. As to the method: as §1
Substrate in series [1]: Sc1ncnc2nc[nH]c12
As to the kind of experiment: cells, lysate or membranes. The conditions noted are these: pH 7.4.

Substrate in series [2]: Nc1ncnc2nc[nH]c12
In words: Radiolabelled substrate uptake (oil-stop, 2 s) in HEK293-mslc43a3 cells. The conditions noted are these: other: HEK293-mslc43a3 minus HEK293-EV, 2 seconds, room temperature, 10 μM dipyridamole; pH 7.4. The class given is cell-based, mouse. On the procedure:
(§2) Harvested cells were suspended in nominally sodium-free N-methyl-D-glucamine (NMG) buffer (140 mM NMG, 5 mM KCl, 4.2 mM KHCO3, 0.36 mM K2HPO4, 0.44 mM KH2PO4, 0.5 mM MgCl2, 1.3 mM CaCl2, 10 mM HEPES, pH 7.4), to minimize potential contribution of sodium-dependent concentrative nucleoside transporter-mediated uptake. Additionally, cells were incubated for 15 minutes at room temperature with 10 μM dipyridamole (DY), an equilibrative nucleoside transporter (ENT) inhibitor, to block equilibrative nucleoside transporter–mediated uptake. The substrate uptake assay was initiated by adding 250 μL cell suspension to 250 μL [^3H] labeled substrate, layered over 21:4 silicone:mineral oil (200 μL) in 1.5 mL microcentrifuge tubes (conducted at room temperature). The uptake reaction was terminated after 2 seconds by centrifugation of the cells through the oil layer at ~10,000 g. […] The resulting cell pellet was digested in 250 μL 1 M NaOH overnight (~16 hours), with 220 μL aliquots of digested cells assessed for radioactive content using standard liquid scintillation counting techniques in a Beckman Coulter LS6500 scintillation system (Brea, CA).
(§3) In transfected-HEK293 cell lines, total uptake was defined as uptake of radiolabeled substrate in cells overexpressing recombinant hENBT1 or mENBT1. […] ENBT1-mediated uptake was calculated as total uptake minus the non-mediated uptake. […]

Substrate in series [3]: Nc1ncnc2nc[nH]c12
In words: Radiolabelled substrate uptake (oil-stop, 2 s) in HEK293-hSLC43A3 cells. The class given is cell-based, human. The conditions noted are these: other: HEK293-hSLC43A3 minus HEK293-EV, 2 seconds, room temperature, 10 μM dipyridamole; pH 7.4. As to the method: as §2, §3

[4] abbreviates: other: HEK293-mslc43a3 minus HEK293-EV, 2 seconds, room temperature, 10 μM dipyridamole.
[5] abbreviates: other: HEK293-hSLC43A3 minus HEK293-EV, 2 seconds, room temperature, 10 μM dipyridamole.

A word on the EC50: it is the concentration giving half of the maximal effect. Take `CSc1ncnc2nc[nH]c12` [6-MeMP, 6-Methylmercaptopurine]: the “effect on 6-MP uptake by ENBT1” value with ENBT1 is “inhibited”. For the same molecule, the concentration for a half-maximal effect (EC50) came to 79 ± 2 µM in the series on HEK293-hSLC43A3 cells (HEK293-hSLC43A3, 48 h, MTT); 42 ± 6 µM with HEK293-mslc43a3 cells (HEK293-mslc43a3, 48 h, MTT); 45 ± 7 µM in the series with HEK293-EV cells.

In the case of `Nc1nc2nc[nH]c2c(=S)[nH]1` [6-TG, 6-thioguanine], the “effect on 6-MP uptake by ENBT1” value with ENBT1 is reported as “competitively inhibits”. The “shift in EC50 (increased sensitivity) relative to HEK293-EV cells” value with HEK293-hSLC43A3 cells (HEK293-hSLC43A3 vs HEK293-EV) and with HEK293-mslc43a3 cells (HEK293-mslc43a3 vs HEK293-EV) was 5 fold each time. Besides, the concentration giving a half-maximal response (EC50) in the series on HEK293-hSLC43A3 cells (HEK293-hSLC43A3, 48 h, MTT) was 3.4 ± 0.9 µM; in the series with HEK293-mslc43a3 cells (HEK293-mslc43a3, 48 h, MTT), 3.4 ± 1.1 µM; in the series on HEK293-EV cells it was 16 ± 4.3 µM.

As for `O=c1[nH]c(=S)c2[nH]c(=O)[nH]c2[nH]1` [6-TU, 6-Thiouric acid], the “effect on cell viability” value in the series with HEK293-hSLC43A3 cells (HEK293-hSLC43A3, 48 h, MTT) was “minimal effect”; in the series on HEK293-mslc43a3 cells (HEK293-mslc43a3, 48 h, MTT), “minimal effect”; with HEK293-EV cells, “minimal effect”.

B1: mENBT1 (slc43a3-encoded mouse ENBT1) (Mus musculus) (protein)
chain: MASKGLPLYLATLLTGLLECIGFAGVLFGWTSLLFVFKAENYFSEPCEQDCLLQSNVTGPSDLKAQDEKFSLIFTLASFMNNFMTFPTGYIFDRFKTTVARLIAIFFYTCATIIIAFTSANTAMLLFLAMPMLAVGGILFLITNLQIGNLFGKHRSTIITLYNGAFDSSSAVFLVIKLLYEQGISLRSSFIFMSVCSVWHIARTFLLMPKGHIPYPLPPNYSYGLCSRFGASKKENKAAEHETKELRSKECLPPKEENSGPEQQQQQEQQQQQQQQQEQHEQHSFRRCALSRRFILHVVWLSIIQLWHYLFIGTLNSLLTKLSGGDKVEVSAYTNAFAITQFFGVLCAPWNGLLMDRLKQKYQKAAKRTGSSSEAVALCSMVPSLALTSLLSLGFALCASIPVMQLQYATFILQVVSRSFLYGCNAAFLTLAFPSEHFGKLFGLVMALSAIVSLLQFPLFKVSPESNAVYVSMGLAIFLTLVHPFLVYRECRAEKTKSSVDA
notes: Oligonucleotides corresponding to the coding region of SLC43A3 (NM_001278201) or slc43a3 (NM_021398); expressed in transfected cells; HEK293-mslc43a3
As usually defined, the Km is the substrate concentration at which the rate is half of its maximum. In general, Vmax refers to the rate approached at saturating substrate. Consider B1, for which, in series [1] (setting [4]), the Km amounted to 253 ± 39 µM and the Vmax stood at 144 ± 12 pmol/µL/s. Also, in series [2], the Km came to 86 ± 22 µM and the Vmax was determined as 62 ± 6 pmol/µL/s.

B2: endogenous ENBT1 expressed in L1210 cells (Mus musculus) (protein)
chain: B1 chain
In the case of B2, the Km in series [1] (other: L1210, 2 seconds) worked out at 272 ± 91 µM.

B3: hENBT1 (SLC43A3-encoded human ENBT1) (Homo sapiens) (protein)
chain: MAGQGLPLHVATLLTGLLECLGFAGVLFGWPSLVFVFKNEDYFKDLCGPDAGPIGNATGQADCKAQDERFSLIFTLGSFMNNFMTFPTGYIFDRFKTTVARLIAIFFYTTATLIIAFTSAGSAVLLFLAMPMLTIGGILFLITNLQIGNLFGQHRSTIITLYNGAFDSSSAVFLIIKLLYEKGISLRASFIFISVCSTWHVARTFLLMPRGHIPYPLPPNYSYGLCPGNGTTKEEKETAEHENRELQSKEFLSAKEETPGAGQKQELRSFWSYAFSRRFAWHLVWLSVIQLWHYLFIGTLNSLLTNMAGGDMARVSTYTNAFAFTQFGVLCAPWNGLLMDRLKQKYQKEARKTGSSTLAVALCSTVPSLALTSLLCLGFALCASVPILPLQYLTFILQVISRSFLYGSNAAFLTLAFPSEHFGKLFGLVMALSAVVSLLQFPIFTLIKGSLQNDPFYVNVMFMLAILLTFFHPFLVYRECRTWKESPSAIA
notes: Oligonucleotides corresponding to the coding region of SLC43A3 (NM_001278201) or slc43a3 (NM_021398); expressed in transfected cells; HEK293-hSLC43A3
As for B3, in series [3], the Km stood at 93 ± 24 µM and the Vmax is 56 ± 6 pmol/µL/s. Further, in series [1] (setting [5]), the Km turned out to be 269 ± 67 µM and the Vmax was 121 ± 16 pmol/µL/s.

B4: endogenous ENBT1 expressed in MOLT-4 cells (Homo sapiens) (protein)
chain: B3 chain
Turning to B4, the Michaelis-Menten constant (Km) in series [1] (other: MOLT-4, 2 seconds) turned out to be 115 ± 68 µM.

The record behind these values is publication PMC11449324, “Functional comparison of human and murine equilibrative nucleobase transporter 1” (PLOS ONE, 2024).
